Test results: patent US20090048269A1 (AstraZeneca AB, priority 2007, published 2009)

Columns and labels:
[1] = molecular target: T1, human ALK5 (Homo sapiens, UniProt P36897); test: ALK5 Enzyme Assay 1; format: biochemical; set-up: 6His tagged ALK5 protein (amino acids 162-503) expressed in insect cells; 6His; made in house; host or cells: insect cells
T1 sequence (P36897 162-503): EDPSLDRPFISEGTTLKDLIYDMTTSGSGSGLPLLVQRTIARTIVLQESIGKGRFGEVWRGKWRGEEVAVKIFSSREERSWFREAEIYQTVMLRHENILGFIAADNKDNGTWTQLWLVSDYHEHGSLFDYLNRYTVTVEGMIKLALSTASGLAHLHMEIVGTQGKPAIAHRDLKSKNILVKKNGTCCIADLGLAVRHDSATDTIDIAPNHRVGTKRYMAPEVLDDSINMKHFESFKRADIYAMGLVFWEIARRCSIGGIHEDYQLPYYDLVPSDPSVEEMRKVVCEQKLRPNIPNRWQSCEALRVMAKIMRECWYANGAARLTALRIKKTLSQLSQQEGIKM
Procedure: This assay measures the ability of a compound to bind to and inhibit the activity of ALK5 protein in vitro. […] Assay measurements were performed in assay buffer comprising 60 mM HEPES pH 7.4, 3 mM MgCl2, 3 mM MnCl2, 3 μM Na orthovanadate, 1.2 mM DTT and 0.05% PEG2000. […] Reactions were performed in the presence of 200 μg/mL casein (Sigma-Aldrich C4765-10ML), 200 ng/mL ALK5, 0.5 μM ATP (Sigma-Aldrich A7699), 1 μCi/mL γ-33P ATP. Following addition of casein, ATP and compound, reactions were initiated by adding ALK5 enzyme and reactions run for 90 minutes. After incubation reactions were terminated by addition of 20 μL per well of 50% orthophosphoric acid. 20 minutes after addition of 70% v/v TCA, precipitated protein was transferred to GF/C 96 well plates using a Tomtec harvester with 1.5% orthophosphoric acid. […] All reactions were performed under linear kinetics.

[2] = molecular target: T1, human ALK5; test: ALK5 Enzyme Assay 2 (fluorescence polarisation probe displacement); format: binding; set-up: 6His tagged human ALK5 (residues162-503) was grown and purified from insect cells; 6His; made in house; host or cells: insect cells
Summary of the method: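 Recombinant ALK5 (3 μg/mL) incubated with test compound in 50 mM HEPES pH7.4, 10 mM MgCl2, 1 mM DTT, 0.01% CHAPS. Displacement of a fluorescent quinazoline-based ALK5 probe (50 nM final) in presence of 1 μM ATP read by fluorescence polarisation.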

[3] = read-out: EAA: activity (μM) using Enzyme Assay 1
[4] = read-out: EAA2: activity (μM) using Enzyme Assay 2

Structure (SMILES)	IC50 [1, 3] [µM]	IC50 [2, 4] [µM]	IC50 ([1]; EAA: activity (μM) using Enzyme Assay 1) [µM]	IC50 [2] [µM]
COc1ccc(S(C)(=O)=O)cc1Nc1cc(Oc2cc(C)c(C)nc2-c2ccccn2)ccn1 [Example 17, 4-(5,6-Dimethyl-2-pyridin-2-yl-pyridin-3-yl)oxy-N-(2-methoxy-5-methylsulfonyl-phenyl)pyridin-2-amine]	0.0147	0.0514		
COc1ccccc1Nc1cc(Oc2cc(C)c(C)nc2-c2ccccn2)ccn1 [Example 19, 4-(5,6-Dimethyl-2-pyridin-2-yl-pyridin-3-y1)oxy-N-(2-methoxy-phenyl)-pyridin-2-amine]			0.0128	0.00216
Cc1cc(Oc2ccnc(Nc3ccc(N4CCN(C)CC4)cc3)c2)c(-c2ccccn2)nc1C [Example 20, 4-(5,6-Dimethyl-2-pyridin-2-yl-pyridin-3-yl)oxy-N-[4-(4-methyl-piperazin-1-yl)phenyl]pyridin-2-amine]	0.0104	0.0166		
Cc1cc(Oc2ccnc(Nc3cc(N4CCOCC4)cc(N4CCOCC4)c3)c2)c(-c2ccccn2)nc1C [Example 21, 4-(5,6-Dimethyl-2-pyridin-2-yl-pyridin-3-yl)oxy-N-(3,5-dimorpholin-4-ylphenyl)pyridin-2-amine]	0.0772	0.125		
Cc1cc(Oc2ccnc(Nc3ccc(S(N)(=O)=O)cc3)c2)c(-c2ccccn2)nc1C [Example 26, 4-{[4-(5,6-Dimethyl-2-pyridin-2-yl-pyridin-3-yl)oxypyridin-2-yl]-amino}benzenesulfonamide]	0.0219	0.0124		
Cc1cc(Oc2ccnc(Nc3ccc(C(=O)N(C)C)cc3)c2)c(-c2ccccn2)nc1C [Example 27, 4-{[4-(5,6-Dimethyl-2-pyridin-2-yl-pyridin-3-yl)oxypyridin-2-yl]-amino}-N,N-dimethyl-benzamide]	0.00706	0.0124		
Cc1cc(Oc2ccnc(Nc3cccc(F)c3)c2)c(-c2ccccn2)nc1C [Example 29, N-(3-Fluorophenyl)-4-(5,6-dimethyl-2-pyridin-2-yl-pyridin-3-yl)-oxy-pyridin-2-amine]	0.0166	0.0184		
Cc1cc(Oc2ccnc(Nc3ccc(Cl)cc3)c2)c(-c2ccccn2)nc1C [Example 30, N-(4-Chlorophenyl)-4-(5,6-dimethyl-2-pyridin-2-yl-pyridin-3-yl)oxy-pyridin-2-amine]	1.67	0.894		
Cc1cc(Oc2ccnc(Nc3cc(F)ccc3F)c2)c(-c2ccccn2)nc1C [Example 31, N-(2,5-Difluorophenyl)-4-(5,6-dimethyl-2-pyridin-2-yl-pyridin-3-yl)-oxy-pyridin-2-amine]	0.0274	0.0312		
CCn1nccc1Nc1cc(Oc2cc(C)c(C)nc2-c2ccccn2)ccn1 [Example 32, 4-(5,6-Dimethyl-2-pyridin-2-yl-pyridin-3-yl)oxy-N-(2-ethylpyrazol-3-yl)-pyridin-2-amine]	0.0425	0.0339		
Cc1cc(Oc2ccnc(Nc3ccc(CO)cc3)c2)c(-c2ccccn2)nc1C [Example 33, (4-{[4-(5,6-Dimethyl-2-pyridin-2-yl-pyridin-3-yl)-oxypyridin-2-yl]amino}phenyl)methanol]	0.0172	0.0167		
Cc1cc(Oc2ccnc(Nc3ccc(C#N)cc3)c2)c(-c2ccccn2)nc1C [Example 34, 4-{[4-(5,6-Dimethyl-2-pyridin-2-yl-pyridin-3-yl)-oxypyridin-2-yl]amino}benzonitrile]	0.0215	0.0255		
Cc1cc(Oc2ccnc(Nc3ccc4[nH]ccc4c3)c2)c(-c2ccccn2)nc1C [Example 35, N-[4-(5,6-Dimethyl-2-pyridin-2-yl-pyridin-3-yl)-oxypyridin-2-yl]-1H-indol-5-amine]	0.205	0.463		
Cc1cc(Oc2ccnc(Nc3ccncc3)c2)c(-c2ccccn2)nc1C [Example 36, 4-(5,6-Dimethyl-2-pyridin-2-yl-pyridin-3-yl)oxy-N-pyridin-4-yl-pyridin-2-amine]	0.0632	0.0515		
Cc1cc(Oc2ccnc(Nc3ccc(F)cc3F)c2)c(-c2ccccn2)nc1C [Example 37, N-(2,4-Difluorophenyl)-4-(5,6-dimethyl-2-pyridin-2-yl-pyridin-3-yl)oxy-pyridin-2-amine]	0.036	0.0216		

Now from value to molecule:

IC50 [1, 3] [µM]	IC50 [2, 4] [µM]	IC50 ([1]; EAA: activity (μM) using Enzyme Assay 1) [µM]	IC50 [2] [µM]	Structure (SMILES)
0.00977	0.00378			Cc1cc(Oc2ccnc(Nc3cccc(CO)c3)c2)c(-c2ccccn2)nc1C [Example 38, (3-{[4-(5,6-Dimethyl-2-pyridin-2-yl-pyridin-3-yl)-oxypyridin-2-yl]amino}phenyl)methanol]
0.0141	0.0123			Cc1cc(Oc2ccnc(Nc3cccc(C#N)c3)c2)c(-c2ccccn2)nc1C [Example 41, 3-{[4-(5,6-Dimethyl-2-pyridin-2-yl-pyridin-3-yl)oxypyridin-2-yl]-amino}-benzonitrile]
0.0162	0.00728			Cc1ccc(Oc2ccnc(Nc3ccc(S(N)(=O)=O)cc3)c2)c(-c2ccccn2)n1 [Example 43, 4-{[4-(6-Methyl-2-pyridin-2-yl-pyridin-3-yl)oxypyridin-2-yl]-amino}benzene-sulfonamide]
0.0161	0.0165			CCc1ccc(Oc2ccnc(Nc3ccc(S(N)(=O)=O)cc3)c2)c(-c2ccccn2)n1 [Example 44, 4-{[4-(6-Ethyl-2-pyridin-2-yl-pyridin-3-yl)oxypyridin-2-yl]-amino}benzene-sulfonamide]
0.00537	0.00799			COc1cc(Nc2cc(Oc3ccc(C)nc3-c3ccccc3)ccn2)cc(OC)c1OC [Example 45, 4-(6-Methyl-2-phenyl-pyridin-3-yl)oxy-N-(3,4,5-trimethoxy-phenyl)pyridin-2-amine]
0.0153	0.0175			COc1cc(Nc2cc(Oc3ccc(C)nc3-c3cscc3C)ccn2)cc(OC)c1OC [Example 46, 4-[6-Methyl-2-(4-methylthiophen-3-yl)pyridin-3-yl]oxy-N-(3,4,5-trimethoxyphenyl)pyridin-2-amine]
0.0248	0.0108			COc1cc(Nc2cc(Oc3ccc(C)nc3-c3ccccn3)ccn2)cc(OC)c1OC [Example 47, 4-(6-Methyl-2-pyridin-2-yl-pyridin-3-yl)oxy-N-(3,4,5-trimethoxy-phenyl)pyridin-2-amine]
0.0751	0.0486			COc1cc(Nc2cc(Oc3ccc(C)nc3-c3cnccn3)ccn2)cc(OC)c1OC [Example 48, 4-(6-Methyl-2-pyrazin-2-yl-pyridin-3-yl)oxy-N-(3,4,5-trimethoxy-phenyl)pyridin-2-amine]
0.00782	0.00804			COc1cc(Nc2cc(Oc3cccnc3-c3ccccc3)ccn2)cc(OC)c1OC [Example 49, 4-(2-Phenylpyridin-3-yl)oxy-N-(3,4,5-trimethoxyphenyl)pyridin-2-amine]
0.126	0.0308			COc1cc(Nc2cc(Oc3cccnc3-c3ccccc3C#N)ccn2)cc(OC)c1OC [Example 50, 2-(3-{2-[(3,4,5-Trimethoxyphenyl)amino]pyridin-4-yl}-oxypyridin-2-yl)benzonitrile]
0.23	0.0274			COc1cc(Nc2cc(Oc3cccnc3-c3ccc(NC(C)=O)cc3)ccn2)cc(OC)c1OC [Example 51, N-[4-(3-{2-[(3,4,5-Trimethoxyphenyl)amino]pyridin-4-yl}-oxypyridin-2-yl)phenyl]acetamide]
0.0156	0.0329			COc1cc(Nc2cc(Oc3cccnc3-c3ccc(F)cc3)ccn2)cc(OC)c1OC [Example 52, 4-[2-(4-Fluorophenyl)pyridin-3-yl]oxy-N-(3,4,5-trimethoxy-phenyl)pyridin-2-amine]
0.481	0.249			COc1cc(Nc2cc(Oc3cccnc3Cl)ccn2)cc(OC)c1OC [Example 53, 4-(2-Chloropyridin-3-yl)oxy-N-(3,4,5-trimethoxyphenyl)pyridin-2-amine]
0.00929	0.0346			COc1cc(Nc2cc(Oc3ccc(C)nc3-c3cccc(Cl)c3)ccn2)cc(OC)c1OC [Example 55, 4-[2-(3-Chlorophenyl)-6-methyl-pyridin-3-yl]oxy-N-(3,4,5-trimethoxyphenyl)-pyridin-2-amine]
0.00379	0.0795			COc1cc(Nc2cc(Oc3ccc(C)nc3-c3cccc(F)c3)ccn2)cc(OC)c1OC [Example 56, 4-[2-(3-Fluoro-phenyl)-6-methyl-pyridin-3-yl]oxy-N-(3,4,5-trimethoxy-phenyl)pyridin-2-amine]
